“Also recorded” adds a separate entry of the source.
Legend:
B. subtilis 168 strain = test: MIC, standard microtiter broth dilution; format: cell-based, Bacillus subtilis; parameters: key to MIC: MIC + antibacterial activity against Bacillus subtilis 168
Description: The minimum inhibitory concentrations (MICs) were determined using the standard microtiter broth dilution method, as recommended by the guidelines of the Clinical Laboratory Standards Institute.

EvgS (559–1197) D1009A = molecular target: T1, EvgS (559–1197) D1009A (Escherichia coli, UniProt P30855, D1009A); test: Inhibition of EvgS autophosphorylation; format: biochemical, Escherichia coli K12; settings: EvgS (559–1197) D1009A; 1 µM HK, 40 µM ATP, 30 min at 25 °C; read-out: IC50
T1 construct: EvgS (559–1197) D1009A; His6 (C); made in house; host or cells: E. coli BL21(DE3)
T1 sequence (P30855 559-1197 D1009A): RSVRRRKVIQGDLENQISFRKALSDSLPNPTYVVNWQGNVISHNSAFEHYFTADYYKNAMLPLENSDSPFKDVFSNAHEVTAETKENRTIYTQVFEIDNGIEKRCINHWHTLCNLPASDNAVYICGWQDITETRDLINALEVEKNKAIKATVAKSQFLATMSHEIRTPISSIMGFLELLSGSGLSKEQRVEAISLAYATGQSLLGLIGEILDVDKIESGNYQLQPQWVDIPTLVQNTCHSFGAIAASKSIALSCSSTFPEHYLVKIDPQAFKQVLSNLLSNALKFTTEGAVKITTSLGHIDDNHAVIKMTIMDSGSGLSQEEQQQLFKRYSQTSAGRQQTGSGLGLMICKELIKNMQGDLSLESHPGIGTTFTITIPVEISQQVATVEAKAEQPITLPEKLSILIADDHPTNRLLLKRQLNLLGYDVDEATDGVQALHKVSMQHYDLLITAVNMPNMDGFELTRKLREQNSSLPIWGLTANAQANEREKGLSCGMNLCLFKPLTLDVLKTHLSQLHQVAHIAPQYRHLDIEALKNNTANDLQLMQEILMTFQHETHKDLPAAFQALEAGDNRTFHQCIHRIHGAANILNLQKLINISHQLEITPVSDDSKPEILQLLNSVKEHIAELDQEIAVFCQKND
Description: (§1) Autophosphorylation of WalK was conducted at 0.5 or 1 µM in a reaction mixture comprising 50 mM Tris-HCl (pH 8.5), 100 mM KCl, 5 mM MgCl2, 100 mM NH4Cl, 5% DMSO, and 40 µM ATP. The total reaction volume was 40 µl, and the incubation lasted for 30 min at 25 °C. To terminate the reaction, 40 µl of 2 × SDS-PAGE sample buffer was added, followed by a 10-min incubation at 37 °C. Subsequently, SDS-PAGE (10% acrylamide) was performed, and the samples were subjected to Western blotting using a PVDF membrane (Bio-Rad 1620177). The primary antibody used was anti-N3-phosphohistidine antibody (clone SC56-2) (EDM Millipore Corp), and the secondary antibody was goat anti-rabbit IgG-HRP (Abcam). A 2% bovine serum albumin (Sigma-Aldrich) solution served as the blocking reagent. Signals originating from phosphorylated HKs were detected using the HRP substrate (Immobilon Western Chemiluminescent HRP substrate, Millipore) and the Multi Imager II Multi Box (Bio Tools). Signal intensities were quantified with Image Analysis Software CS Analyzer 4 (ATTO). IC50 values (50% inhibitory concentrations) were determined using Prism 7 software (GraphPad).
(§2) In the assessment of naphthoquinone derivatives, the initial screening for inhibitory activity against WalK autophosphorylation was conducted at 50 or 100 µg ml^−1. Compounds displaying inhibitory activity were further examined to ascertain their IC50 values against WalK. For the chosen compounds, inhibition against EvgS, EnvZ, PhoQ, and CpxA HKs was also assessed. These reactions involved the use of 1 µM HK, 40 µM ATP, and a 30 min incubation at 25 °C.

EnvZ = molecular target: T2, EnvZ (Escherichia coli, UniProt P0AEJ4); test: Inhibition of EnvZ autophosphorylation; format: biochemical, Escherichia coli K12; settings: EnvZ; 1 µM HK, 40 µM ATP, 30 min at 25 °C; read-out: IC50
T2 construct: pETEcEnvZ(223-450); His6 (C); made in house; host or cells: E. coli BL21(DE3)
T2 sequence (P0AEJ4 223-450): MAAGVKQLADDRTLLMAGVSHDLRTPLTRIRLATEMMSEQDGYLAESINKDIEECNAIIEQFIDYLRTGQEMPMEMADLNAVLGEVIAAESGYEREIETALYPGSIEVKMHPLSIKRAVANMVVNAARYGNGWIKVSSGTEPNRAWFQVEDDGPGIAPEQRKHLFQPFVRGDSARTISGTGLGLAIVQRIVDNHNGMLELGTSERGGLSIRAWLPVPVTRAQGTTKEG
Description: as §1, §2

PhoQ = molecular target: T3, PhoQ (Escherichia coli, UniProt P23837); test: Inhibition of PhoQ autophosphorylation; format: biochemical, Escherichia coli K12; settings: PhoQ; 1 µM HK, 40 µM ATP, buffer pH 7.5; read-out: IC50
T3 construct: cytoplasmic regions of PhoQ (261-486) and CpxA (188-457); His6 (C); made in house; host or cells: E. coli BL21(DE3)
T3 sequence (P23837 261-486): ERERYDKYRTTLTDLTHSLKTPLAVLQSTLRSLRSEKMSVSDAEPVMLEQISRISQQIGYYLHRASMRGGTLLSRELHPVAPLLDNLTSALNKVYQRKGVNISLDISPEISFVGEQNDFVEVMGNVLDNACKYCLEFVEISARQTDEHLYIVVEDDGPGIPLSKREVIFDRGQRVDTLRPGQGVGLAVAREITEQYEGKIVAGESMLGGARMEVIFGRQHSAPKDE
Description: as §1, §2

iseA (formerly yoeB) = test: RT-qPCR of iseA expression in B. subtilis cells; format: cell-based, B. subtilis 168; parameters: key to RT-qPCR: RT-qPCR + iseA gene expression was induced in B. subtilis 168; − no effect; settings: for expression of iseA: exponentially growing cells, subMIC or MIC levels, 5 min, relative to DMSO control; for RT-qPCR: summary class, iseA gene expression in B. subtilis 168
Description: In brief, the cells were aerated and grown to an optical density at 660 nm of 0.3–0.4 at 37 °C. After the addition of DMSO or naphthoquinone derivatives, the cultures were further incubated for 5 min, cooled on ice for 1 min, and then harvested by centrifugation (2300 × g, 10 min, 4 °C). The cells were resuspended in 800 µl of RNA Lysis Buffer (SV Total RNA Isolation System, Z3100, Promega), transferred to a screw-capped tube containing 400 mg of glass beads (GB-01, TOMY), and disrupted using MicroSmash (MS-100, TOMY Medico) at 3000 rpm, 60 s ON/OFF for 6 cycles. RNA was then purified from 175 µl of the supernatant using the SV Total RNA Isolation System, followed by DNase I treatment (Turbo DNA-free^TM Kit, AM1907, Invitrogen) to remove any residual genomic DNA contamination. […] The expression levels of the genes were normalized using the 16S rRNA gene as an internal standard. Each assay was performed at least three times. Statistical analyses were conducted using Tukey’s multiple comparison test (GraphPad Prism 7).

[1] = molecular target: T4, WalK (207-611, B. subtilis) (Bacillus subtilis, UniProt Q45614); test: Affinity selection/mass spectrometry, competition with waldiomycin; format: binding; parameters: key to AS/MS: AS/MS + competitive inhibition of the binding of waldiomycin to WalK; − increased binding of waldiomycin to WalK; settings: for increase of MS signal of the collected waldiomycin compared to only waldiomycin: compound 30 or 100 µM; for AS/MS: summary class, effect on binding of waldiomycin to WalK
T4 construct: His6 (N); made in house; host or cells: E. coli BL21(DE3)
T4 sequence (Q45614 207-611): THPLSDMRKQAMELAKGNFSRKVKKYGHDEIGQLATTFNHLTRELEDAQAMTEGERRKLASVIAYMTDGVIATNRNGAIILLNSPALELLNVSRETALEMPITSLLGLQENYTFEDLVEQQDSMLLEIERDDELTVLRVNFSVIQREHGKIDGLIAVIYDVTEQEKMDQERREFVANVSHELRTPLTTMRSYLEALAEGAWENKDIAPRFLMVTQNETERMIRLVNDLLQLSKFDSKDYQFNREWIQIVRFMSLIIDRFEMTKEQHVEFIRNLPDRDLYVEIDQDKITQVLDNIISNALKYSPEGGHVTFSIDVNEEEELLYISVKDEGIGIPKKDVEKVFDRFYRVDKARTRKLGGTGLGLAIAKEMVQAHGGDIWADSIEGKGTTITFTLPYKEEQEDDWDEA
Description: The affinity selection/mass spectrometry (AS/MS) is a method which can detect the binding of small compounds to proteins. This experiment was carried out following a previously established protocol (Fig. 5), with the exception of using Millipore 96-well filter plates (MSBVN1210) instead of MAHAN4510. In the experiment, 1 µM of WalK (207-611, B. subtilis, refer to Table S2) was combined and incubated with 5 µM of waldiomycin and competitor compounds in a reaction buffer. The buffer composition was as follows: 25 mM Tris-HCl (pH 8.0), 50 mM KCl, 50 mM NH4Cl, 5 mM MgCl2, 1 mM DTT, and 0.1% CHAPS. Following the incubation, the mixture was subjected to size-exclusion chromatography via centrifugation to eliminate free compounds. The protein that was eluted was then denatured by adding an equal volume of methanol/0.1% formic acid. The compounds that were subsequently released from the protein were detected using an LC/MS system. The concentrations of waldiomycin were calculated from the value of peak areas using calibration curve that covered the range of 1 nM to 1 µM (R^2 = 0.9991). The concentration of waldiomycin in the eluate of WalK and waldiomycin without competitor was 10.1 nM, and percentages to this value were calculated for other samples.

[2] = test system: HKs (EvgS, EnvZ, PhoQ, and CpxA); test: Inhibition of class I HKs, summary over several HKs; format: biochemical, Escherichia coli K12; parameters: key to HKs: HKs + inhibitory effect against HKs (EvgS, EnvZ, PhoQ, and CpxA); settings: for inhibition of EvgS, EnvZ, PhoQ, and CpxA: in words; for HKs: summary class, EvgS, EnvZ, PhoQ, and CpxA
Description: as §1, §2

[3] = B. subtilis 168 strain grown in LB broth at 37 °C for 18 h
[4] = summary class, Bacillus subtilis 168

| Structure (SMILES) | MIC (B. subtilis 168 strain; [3]) | MIC (B. subtilis 168 strain; B. subtilis 168 strain grown in LB broth at 37 °C for 18 h, listed as C00015) | MIC (B. subtilis 168 strain; [4]) | IC50 (EvgS (559–1197) D1009A) | IC50 (EnvZ) | IC50 (PhoQ) | expression of iseA (iseA (formerly yoeB)) | RT-qPCR (iseA (formerly yoeB)) | increase of MS signal of the collected waldiomycin compared to only waldiomycin ([1]; waldiomycin 5 µM, WalK 1 µM) | binding to WalK competitive with that of waldiomycin ([1]; in words) | AS/MS [1] | inhibition of EvgS, EnvZ, PhoQ, and CpxA [2] | HKs [2] | antibacterial (antimicrobial) activity against B. subtilis (B. subtilis 168 strain; in words) | effect on the signal of waldiomycin ([1]; compound 30 and 100 µM, in words) | signal of waldiomycin compared to only waldiomycin with WalK ([1]; compound at 100 µM, waldiomycin 5 µM, WalK 1 µM) |
| --- | --- | --- | --- | --- | --- | --- | --- | --- | --- | --- | --- | --- | --- | --- | --- | --- |
| O=C1C(Cl)=C(Nc2ccc(Cl)c(O)c2)C(=O)c2c(O)ccc(O)c21 [2h, 2-chloro-3-((4-chloro-3-hydroxyphenyl)amino)-5,8-dihydroxynaphthalene-1,4-dione] | 8 µg/mL | 8 µg/mL | + | 25.8 µM | 47.2 µM | 42.3 µM | significantly increased; also recorded: significantly induced iseA gene expression | + | about twofold | not competitive; also recorded: enhanced the binding of waldiomycin to WalK | − | inhibited all four of these HKs | + |  |  |  |
| CC(C)(C)OC(=O)Nc1cccc(NC2=C(Cl)C(=O)c3c(O)ccc(O)c3C2=O)c1 [2l, tert-butyl (3-((3-chloro-5,8-dihydroxy-1,4-dioxo-1,4-dihydronaphthalen-2-yl)amino)phenyl)carbamate] | 8 µg/mL |  | + | 50 µM | 26.8 µM | 133 µM | significantly increased; also recorded: significantly induced iseA gene expression | + | about twofold | not competitive; also recorded: enhanced the binding of waldiomycin to WalK | − | inhibited all four of these HKs | + |  |  |  |
| Cc1noc2c1C(=O)c1c(O)ccc(O)c1C2=O [3b, 5,8-dihydroxy-3-methylnaphtho[2,3-d]isoxazole-4,9-dione] | 0.5 µg/mL |  | + | 109 µM | 77.3 µM | 96.3 µM | significantly increased; also recorded: significantly induced iseA gene expression | + |  | competitive; also recorded: competitively interacted with waldiomycin | + | inhibited all four of these HKs | + | equal to waldiomycin or even stronger | reduced the signal of waldiomycin in a dose-dependent manner | about 10% |

Source: publication PMC11284088, “Synthesis and biochemical characterization of naphthoquinone derivatives targeting bacterial histidine kinases” (The Journal of Antibiotics, 2024)
